Reference: PubChem BioAssay AID330 (DTP/NCI, 2004)
Several values for one entry are separate records, joined by “and”; a condition that tells them apart may be missing. Equal values may be shown once. Toxic doses and inconclusive results are not listed. How the source made its calls: active means survival T/C of 150% or more; inactive means T/C below 125% in these data.

Test system: P388 leukemia ip, CD2F1 mice, survival T/C
Assay: NCI In Vivo Anticancer Drug Screen. Data for tumor model P388 Leukemia (intraperitoneal) in CD2F1 (CDF1) mice
Conditions: endpoint: median survival time, higher = longer survival
Outline: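 Mice carrying the transplanted tumor received test compound or vehicle. Survival was recorded in each group, and the value is the treated-group measurement divided by that of the vehicle-treated control group.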

[1] = dose: 12.5 mg/kg/injection, schedule: Q01DX009 (ip), vehicle: distilled water + Tween-80

Measured: T/C

COc1c2ccccc2c(OC)c2c(OC(C)=O)c3c(c(OC(C)=O)c12)CC=CC3
inactive: dose: 3.13 mg/kg/injection, schedule: Q01DX009 (ip), vehicle: other 96 % of control | dose: 6.25 mg/kg/injection, schedule: Q01DX009 (ip), vehicle: other 104 % of control | dose: 25.0 mg/kg/injection, schedule: Q01DX009 (ip), vehicle: other 93 % of control | dose: 50.0 mg/kg/injection, schedule: Q01DX009 (ip), vehicle: other 96 % of control

CCN(CC)Cc1c(C)[nH]c2c3c(ccc2c1=O)Oc1c(ccc2c(=O)c(CN(CC)CC)c(C)[nH]c12)O3
inactive: dose: 50.0 mg/kg/injection, schedule: Q01DX009 (ip), vehicle: Klucel (hydroxypropylcellulose) (HPC) 96 % of control | dose: 100.0 mg/kg/injection, schedule: Q01DX009 (ip), vehicle: Klucel (hydroxypropylcellulose) (HPC) 93 % of control | dose: 200.0 mg/kg/injection, schedule: Q01DX009 (ip), vehicle: Klucel (hydroxypropylcellulose) (HPC) 96 % of control

O=C1NC(=O)C2=C1CCC2
inactive: dose: 3.13 mg/kg/injection, schedule: Q01DX009 (ip), vehicle: distilled water + Tween-80 98 % of control | dose: 6.25 mg/kg/injection, schedule: Q01DX009 (ip), vehicle: distilled water + Tween-80 104 % of control | [1] 114 % of control

C[CH2][Sn]([CH2]C)([N]=C=S)[N]=C=S
inactive: dose: 3.12 mg/kg/injection, schedule: Q01DX009 (ip), vehicle: saline 99 % of control and 100 % of control | dose: 6.25 mg/kg/injection, schedule: Q01DX009 (ip), vehicle: saline 86 % of control and 93 % of control

COC1=C(N)C(=O)c2nc(-c3nc(C(=O)O)c(C)c(-c4ccc(OC)c(OC)c4O)c3N)ccc2C1=O
inactive: dose: 0.01 mg/kg/injection, schedule: Q01DX009 (ip), vehicle: other 93 % of control | dose: 0.01 mg/kg/injection, schedule: Q## X024 (ip), vehicle: other 110 % of control | dose: 0.02 mg/kg/injection, schedule: Q01DX009 (ip), vehicle: DMSO 101 % of control | dose: 0.02 mg/kg/injection, schedule: Q## X016 (ip), vehicle: other 110 % of control | dose: 0.02 mg/kg/injection, schedule: Q## X024 (ip), vehicle: other 100 % of control | dose: 0.03 mg/kg/injection, schedule: Q01DX009 (ip), vehicle: distilled water + Tween-80 117 % of control and 97 % of control | dose: 0.03 mg/kg/injection, schedule: Q01DX009 (ip), vehicle: other 95 % of control | dose: 0.04 mg/kg/injection, schedule: Q01DX009 (ip), vehicle: DMSO 123 % of control | dose: 0.05 mg/kg/injection, schedule: Q01DX001 (ip), vehicle: other 120 % of control | dose: 0.05 mg/kg/injection, schedule: Q01DX009 (ip), vehicle: DMSO 119 % of control | dose: 0.05 mg/kg/injection, schedule: Q## X008 (ip), vehicle: other 120 % of control | dose: 0.05 mg/kg/injection, schedule: Q## X016 (ip), vehicle: other 110 % of control | dose: 0.05 mg/kg/injection, schedule: Q## X024 (ip), vehicle: other 110 % of control | dose: 0.06 mg/kg/injection, schedule: Q01DX009 (ip), vehicle: DMSO 124 % of control | dose: 0.08 mg/kg/injection, schedule: Q01DX009 (ip), vehicle: DMSO 110 % of control | dose: 0.1 mg/kg/injection, schedule: Q01DX001 (ip), vehicle: other 120 % of control | dose: 0.1 mg/kg/injection, schedule: Q01DX009 (oral), vehicle: other 110 % of control | dose: 0.1 mg/kg/injection, schedule: Q## X008 (ip), vehicle: other 120 % of control | dose: 0.1 mg/kg/injection, schedule: Q## X016 (ip), vehicle: other 110 % of control | dose: 0.12 mg/kg/injection, schedule: Q01DX009 (ip), vehicle: other 120 % of control | dose: 0.15 mg/kg/injection, schedule: Q01DX009 (ip), vehicle: dioxane 123 % of control | dose: 0.16 mg/kg/injection, schedule: Q01DX009 (ip), vehicle: distilled water + Tween-80 123 % of control | dose: 0.16 mg/kg/injection, schedule: Q01DX009 (ip), vehicle: other 102 % of control and 103 % of control | dose: 0.2 mg/kg/injection, schedule: Q01DX001 (ip), vehicle: other 120 % of control | dose: 0.2 mg/kg/injection, schedule: Q01DX009 (oral), vehicle: other 110 % of control | dose: 0.2 mg/kg/injection, schedule: Q## X008 (ip), vehicle: other 120 % of control | dose: 0.2 mg/kg/injection, schedule: Q## X016 (ip), vehicle: other 120 % of control | dose: 0.32 mg/kg/injection, schedule: Q01DX009 (ip), vehicle: distilled water + Tween-80 101 % of control and 94 % of control | dose: 0.4 mg/kg/injection, schedule: Q01DX009 (oral), vehicle: other 110 % of control | dose: 0.8 mg/kg/injection, schedule: Q01DX001 (oral), vehicle: other 100 % of control | dose: 0.8 mg/kg/injection, schedule: Q01DX009 (oral), vehicle: other 100 % of control | dose: 1.6 mg/kg/injection, schedule: Q01DX001 (oral), vehicle: other 100 % of control | dose: 2.5 mg/kg/injection, schedule: Q01DX009 (ip), vehicle: saline with Tween-80 95 % of control | dose: 3.2 mg/kg/injection, schedule: Q01DX001 (oral), vehicle: other 90 % of control | [1] 103 % of control | dose: 25.0 mg/kg/injection, schedule: Q01DX009 (ip), vehicle: distilled water + Tween-80 110 % of control | dose: 50.0 mg/kg/injection, schedule: Q01DX009 (ip), vehicle: distilled water + Tween-80 119 % of control | dose: 200.0 mg/kg/injection, schedule: Q01DX009 (ip), vehicle: distilled water + Tween-80 119 % of control | dose: 25.0 micrograms/kg/injection, schedule: Q01DX009 (ip), vehicle: other 120 % of control | dose: 400.0 micrograms/kg/injection, schedule: Q01DX009 (ip), vehicle: other 114 % of control

O=C1C2C3C=CC(O3)C2C(=O)N1/N=C\C(O)C(O)C(O)C(O)CO (configuration not stated)
inactive: dose: 50.0 mg/kg/injection, schedule: Q01DX005 (ip), vehicle: saline with Tween-80 97 % of control | dose: 100.0 mg/kg/injection, schedule: Q01DX005 (ip), vehicle: saline with Tween-80 98 % of control | dose: 200.0 mg/kg/injection, schedule: Q01DX005 (ip), vehicle: saline with Tween-80 95 % of control

CC(C)OP(=O)(NNP(=O)(OC(C)C)OC(C)C)OC(C)C
inactive: dose: 50.0 mg/kg/injection, schedule: Q01DX009 (ip), vehicle: saline 104 % of control | dose: 100.0 mg/kg/injection, schedule: Q01DX009 (ip), vehicle: saline 105 % of control | dose: 200.0 mg/kg/injection, schedule: Q01DX009 (ip), vehicle: saline 114 % of control

COc1cc2c(cc1OC)[C@H]1C(=O)c3cc4c(cc3[C@H]1N(C)C2=O)OCO4
inactive: dose: 12.5 mg/kg/injection, schedule: Q01DX005 (ip), vehicle: distilled water + Tween-80 94 % of control | dose: 25.0 mg/kg/injection, schedule: Q01DX005 (ip), vehicle: distilled water + Tween-80 96 % of control | dose: 50.0 mg/kg/injection, schedule: Q01DX005 (ip), vehicle: distilled water + Tween-80 91 % of control

CN(C)C(=O)c1cccc2ccc[n+](C)c12
inactive: dose: 78.0 micrograms/kg/injection, schedule: Q04DX002 (ip), vehicle: saline 98 % of control | dose: 156.0 micrograms/kg/injection, schedule: Q04DX002 (ip), vehicle: saline 99 % of control | dose: 312.0 micrograms/kg/injection, schedule: Q04DX002 (ip), vehicle: saline 98 % of control

Cn1cc(-c2ccc3c(c2)OCO3)c2ccccc21
inactive: dose: 60.0 mg/kg/injection, schedule: Q01DX005 (ip), vehicle: saline with Tween-80 100 % of control | dose: 120.0 mg/kg/injection, schedule: Q01DX005 (ip), vehicle: saline with Tween-80 100 % of control | dose: 240.0 mg/kg/injection, schedule: Q01DX005 (ip), vehicle: saline with Tween-80 101 % of control
